In series [1] the test system is GM04663. The series is described as follows: Corrector activity at aberrant splicing of ELP1 gene […] mutant (unknown origin) in human GM04663 cells assessed as increase in exon 20 inclusion at 10 uM by Capillary electrophoresis. The series is classed as cell-based.
The subject of series [2] is GM04663. Kind of series: Corrector activity at aberrant splicing of ELP1 gene […] mutant (unknown origin) in human GM04663 cells assessed as increase in exon 20 inclusion at 50 uM by Capillary electrophoresis. The series is classed as cell-based.
In series [3] the test system is ARPE-19. The series is described as follows: Cytotoxicity against human ARPE-19 cell assessed as decrease in resazurin signal incubated with resazurin for 1 hrs by M2 reader analysis. Details: scale not given: the % may be the effect or the level left. The series is classed as toxicity, cell-based. The conditions noted are these: arpe-19, 1 h. (In general: Resazurin is reduced to fluorescent resorufin, in cell work by metabolically active cells.)

The nature of series [4]: Cytotoxicity against human GM04663 cell assessed as decrease in resazurin signal incubated with resazurin for 48 hrs by M2 reader analysis. The series is classed as functional. More on the design: scale not given: the % may be the effect or the level left.
In series [5] the test system is HaCaT. The series is described as follows: Cytotoxicity against human HaCaT cell assessed as decrease in resazurin signal incubated with resazurin for 3 hrs by M2 reader analysis. The series is classed as toxicity, cell-based. Details: scale not given: the % may be the effect or the level left.
The subject of series [6] is BJ. Kind of series: Cytotoxicity against human BJ cell assessed as decrease in resazurin signal incubated with resazurin for 3 hrs by M2 reader analysis. The series is classed as toxicity, cell-based. Details: scale not given: the % may be the effect or the level left.

Active and inactive are the calls of the source. The calls are words filed in the database; no cut-off is given here.

Take `Nc1nc2c(NCc3ccco3)ncnc2[nH]1`: the outcome in series [1] was Active.
For the compound `CN(C)CCNc1nc2c(NCc3ccco3)ncnc2[nH]1`, in series [1], the outcome was Active.
On the same count and under the same terms, then `C=CCNc1nc2c(NCc3ccco3)ncnc2[nH]1`, with “Active”; and `NCCNc1nc2c(NCc3ccco3)ncnc2[nH]1`, with “Active”.
With `Nc1c(Cl)ncnc1NCc1ccco1`, the outcome in series [2] was Active.
In the case of `Nc1nc(Cl)cc(NCc2ccco2)n1`, the outcome in series [2] was Active.
Take `Fc1nc(NCc2ccco2)c2nc[nH]c2n1`: the result in series [1] was Active. For the same compound, the Activity in series [3] is recorded as less than 20%; in series [4] it was greater than 20%; in series [5], greater than 20%; in series [6] it was greater than 20%.
With `c1coc(CNc2ncnc3[nH]cnc23)c1`, the outcome in series [1] was Active.
Take `Clc1nc(NCc2ccco2)c2[nH]cnc2n1`: the result in series [1] was Active. Also, the Activity is less than 20% in series [3], greater than 20% in series [4], greater than 20% in series [5] and greater than 20% in series [6].
`Clc1cc(NCc2ccco2)ncn1`: in series [2], the outcome was Active.
`Clc1nc(NCc2ccco2)c2nc(Cl)[nH]c2n1`: the outcome in series [1] was Active.
Same read-out and setting: then `Cn1cnc2ncnc(NCc3ccco3)c21`, with “Active”.
For the compound `c1ccc(Nc2nc3c(NCc4ccco4)ncnc3[nH]2)cc1`, in series [1], the result was Active. In addition, the Activity in series [3] is less than 20%; in series [4] it was greater than 20%; in series [5], greater than 20%; in series [6] it was greater than 20%.
Regarding `Cn1cnc2nc(Cl)nc(NCc3ccco3)c21`, the result in series [1] was Active.
The same measure, in the same setting: next, `COc1nc2c(NCc3ccco3)ncnc2[nH]1`: “Active”.
Same read-out and setting: next, `CCCn1cnc2ncnc(NCc3ccco3)c21`: “inactive”; `c1coc(CNc2ncnc3[nH]c(NCCCN4CCOCC4)nc23)c1`: “Active”.
As for `CN(Cc1ccco1)c1cc(Cl)nc(N)n1`, in series [2], the outcome was Active.
Regarding `c1ccc(CNc2nc3c(NCc4ccco4)ncnc3[nH]2)cc1`, the outcome in series [1] was Active. For the same compound, the Activity is reported as less than 20% in series [3], greater than 20% in series [4], greater than 20% in series [5] and greater than 20% in series [6].
Take `CN(C)CCOc1nc2c(NCc3ccco3)ncnc2[nH]1`: the result in series [1] was Active.
In the case of `O=c1[nH]c2ncnc(NCc3ccco3)c2[nH]1`, in series [1], the outcome was Active.
The same measure, in the same setting: then `Nc1nc2c(NCc3ccco3)nc(Cl)nc2[nH]1`, with “inactive”; and `Ic1nc2c(NCc3ccco3)ncnc2[nH]1`, with “inactive”; and `CCCOc1nc2c(NCc3ccco3)ncnc2[nH]1`, with “Active”.
Same read-out and setting: then `CSc1nc2c(NCc3ccco3)ncnc2[nH]1`, with “Active”.
Take `c1csc(CNc2[nH]cnc3ncnc2-3)c1`: the outcome in series [1] was inactive.

Source of the values: ChEMBL document CHEMBL6121015, “Correction of aberrant splicing of ELP1 pre-mRNA by kinetin derivatives - A structure activity relationship study” (Eur J Med Chem, 2025).
